# Results from patent US20070191325A1, “Methods for altering insulin secretion” (priority 2004, published 2007).
# Tests used:
# INS-1 cells = assay: Glucose-induced insulin secretion of INS-1 cells; format: cell-based, rat; conditions: INS-1 cells pretreated with 100 nM dexamethasone
# Protocol: Prior to the experiment INS-1 cells were treated in culture with dexamethasone, 100 nM, for 4 h. Cells were washed twice and preincubated in HEPES buffered salt solution containing (in mmol/l): 140 NaCl, 5.6 KCl, 1.2 MgCl2, 2.6 CaCl2, 0.5 glucose, 10 HEPES and 5 g/l bovine serum albumin, pH 7.4 at 37° C. Thereafter cells were incubated for 30 min at 37° C. in fresh solution containing the test substances at the appropriate concentrations. Insulin was measured by radioimmunoassay using rat insulin antiserum (Linco, Biotrend Chemikalien GmbH, Cologne, Germany), I^125-insulin (CIS Diagnostik GmbH, Dreieich, Germany) and rat insulin (Novo Nordisk, Mainz, Germany) as standard or by an Insulin Elisa kit (Mercodia, Uppsala, Sweden).
# INS-1 cells (kindly provided by CB Wollheim, University of Geneva, Switzerland) derived from a rat insulinoma were cultured in HEPES-buffered RPMI 1640 supplemented with 10% fetal calf serum (Biochrom, Berlin, Germany), 1 mmol/l HEPES, 1 mmol/l Na pyruvate, 10 μmol/l β-mercaptoethanol (Sigma, Munich, Germany) and antibiotics as described elsewhere (Abel et al., 1996; Asfari et al., 1992). Cells were seeded at a cell density of 2.0-2.5 10^5 cells/ml in 24-well culture plates and cultured for 2 days prior to the experiment. Cells were washed twice with HEPES buffered salt solution containing (in mmol/l): 140 NaCl, 5.6 KCl, 1.2 MgCl2, 2.6 CaCl2, 0.5 glucose, 10 HEPES and 5 g/l bovine serum albumin, pH 7.4. and preincubated for 30 min at 37° C. […] Incubations were stopped on ice, medium removed and frozen at −20° C. until insulin released into the supernatant was measured by radioimmunoassay using rat insulin antiserum (Linco, Biotrend Chemikalien GmbH, Cologne, Germany), I^125-insulin (CIS Diagnostik GmbH, Dreieich, Germany) and rat insulin (Novo Nordisk, Mainz, Germany) as standard or an insulin Elisa kit (Mercodia, Uppsala, Sweden). Insulin content was measured after extraction with acid ethanol (1.5 (v/v) % HCl/75% ethanol) over night at 4° C.
# [1] = system: voltage gated outward current (Kv channels) in INS-1 cells; assay: Patch clamp measurement of whole cell outward current in INS-1 cells; format: cell-based, rat; conditions: for 4-AP sensitive current: INS-1 cells after 4 hours 100 nM dexamethasone; for inhibition of outward current: untreated INS-1 cells
# Protocol: Cells were treated prior to the experiment with 100 nm dexamethasone for 4 h. (2A) whole cell current was induced by 200 ms voltage pulses increasing by 10 mv steps from −70 mv to +50 mv. (2B) Sensitivity to 4-ap (0.1 and 1 mm) and tea (1 and 10 mm) was tested in cells before (black columns) and after dexamethasone treatment (white columns). Voltage pulses of 200 ms duration from −70 to 50 mv were applied. Shown are means±sem for the indicated number of experiments. * denotes significance (p<0.05) to current in control, non treated cells at the same inhibitor concentration. Ins-1 cells were cultured as described before (Abel et al., 1996; Asfari et al., 1992). The external patch clamp solution contained (in mmol/l): 140 NaCl, 5.6 KCl, 1.2 MgCl2, 2.6 CaCl2, 0.5 glucose and 10 HEPES, PH 7.4. The internal solution contained (in mmol/l): 30 KCL, 95 K^+-gluconate, 1 MgCl2, 1.2 NaH2PO4, 4.8 Na2HPO4, 5 Na2ATP, 1 Na3GTP, 5 mmol/l EGTA, PH 7.2. An Epc9 Patch Clamp Amplifier (Heka Electronic, Lambrecht, Germany) Was Used For Current Measurements.
# INS-1 cells were cultured for 2-4 days on glass cover slips coated with poly-L-ornithine (10 mg/l Sigma, Munich, Germany) at appropriate cell densities (1.2×10^6 cells/ml). The cover slips were mounted in a bath chamber on the stage of an inverted microscope (IM, Zeiss, Jena, Germany). The cells were kept at room temperature or at 34° C. as indicated for each experiment and superfused with a solution containing (in mmol/l): 140 NaCl, 5.6 KCl, 1.2 MgCl2, 2.6 CaCl2, 0.5 glucose and 10 HEPES, pH 7.4. The patch clamp pipettes (Clark-Medical, Reading, Great Britain) with a resistance of 4-6 MΩ were pulled using a DMZ-universal puller (Zeitz, Augsburg, Germany). They were filled with an internal solution containing (in mmol/l): 30 KCl, 95 K^+-gluconate, 1 MgCl2, 1.2 NaH2PO4, 4.8 Na2HPO4, 5 Na2ATP, 1 Na3GTP, 5 mmol/l EGTA, pH 7.2. An EPC9 patch clamp amplifier (Heka Electronic, Lambrecht, Germany) was used for current measurements. Only stable current measurements, i.e. when currents reached at least 90% of control current after removal of the respective inhibitory drug, were used for analysis.
# [2] = system: SGK1 protein in INS-1 cells; assay: Western blotting of SGK1 protein in INS-1 cells; format: cell-based, rat
# Protocol: INS-1 cells were treated with 100 nM dexamethasone or vehicle (DMSO) in culture for the indicated periods of time.
# Plots were incubated with antibodies against SGK1 (New England Biolabs, Beverly, Mass., USA). Bound antibody was visualized using a second antibody coupled to horse radish peroxidase.
# Thereafter, culture medium was removed and cells were lysed in a solution containing 300 mM NaCl, 20 mM Tris HCl, pH 7.4, 1% (v/v) Triton X-100, 1% Sodiumdeoxycholate, 0.1% SDS, 2.5 mM EDTA, 10 μg/ml Pepstatin A, 10 μg/ml Aprotinin and 0.1 mM PMSF. Total cellular protein, 50 μg, quantified by Coomassie Blue G staining (Bradford dye assay, Biorad Laboratories GmbH, Munich, Germany) was subjected to SDS-PAGE (1%), and plotted onto a nitrocellulose membrane (Schleicher and Schuell, Dassel, Germany). Plots were incubated with antibodies against SGK1 (New England Biolabs, Beverly, Mass., USA). Bound antibody was visualized using a second antibody coupled to horse radish peroxidase.
# [3] = biological target: nuclear glucocorticoid receptor (Mus musculus, UniProt P06537); conditions: Lambillotte et al., 1997; cited from earlier work
# Sequence of nuclear glucocorticoid receptor (P06537 whole entry): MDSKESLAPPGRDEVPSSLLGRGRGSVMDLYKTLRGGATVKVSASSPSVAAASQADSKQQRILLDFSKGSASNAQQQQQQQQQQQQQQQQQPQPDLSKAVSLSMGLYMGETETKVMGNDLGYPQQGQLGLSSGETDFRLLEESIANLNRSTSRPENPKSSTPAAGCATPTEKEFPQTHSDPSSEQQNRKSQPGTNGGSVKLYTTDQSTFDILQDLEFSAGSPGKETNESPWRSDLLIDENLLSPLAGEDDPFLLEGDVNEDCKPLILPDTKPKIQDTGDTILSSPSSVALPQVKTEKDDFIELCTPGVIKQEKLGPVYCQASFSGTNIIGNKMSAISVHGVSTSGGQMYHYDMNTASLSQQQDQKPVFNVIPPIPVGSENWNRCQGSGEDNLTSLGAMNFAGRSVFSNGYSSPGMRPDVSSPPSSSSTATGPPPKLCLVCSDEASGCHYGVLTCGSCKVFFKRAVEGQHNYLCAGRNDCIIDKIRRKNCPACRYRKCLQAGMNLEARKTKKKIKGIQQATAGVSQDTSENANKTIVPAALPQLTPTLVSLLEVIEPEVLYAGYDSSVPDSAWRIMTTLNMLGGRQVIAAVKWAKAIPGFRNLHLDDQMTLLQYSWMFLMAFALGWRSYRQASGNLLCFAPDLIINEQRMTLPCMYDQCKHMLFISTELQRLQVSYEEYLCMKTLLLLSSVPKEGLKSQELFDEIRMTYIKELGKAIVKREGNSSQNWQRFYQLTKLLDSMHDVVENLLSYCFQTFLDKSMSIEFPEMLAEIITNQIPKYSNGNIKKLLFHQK
# [4] = system: SGK1 transcript levels in INS-1 cells; assay: Real time PCR of SGK1 mRNA in INS-1 cells; format: cell-based, rat; conditions: with 100 nM dexamethasone
# Kv1.5 mRNA in INS cells = assay: Real time PCR of Kv1.5 mRNA in INS-1 cells; format: cell-based, rat; conditions: 100 nM dexamethasone, within 4 hours
structure (smiles),measurement,setting,value
Nc1ccncc1 [4-AP],effect on dexamethasone-induced inhibition of insulin secretion,INS-1 cells,reversed
same,4-AP sensitive current,[1]; 0.1 mM 4-AP,28%
same,4-AP sensitive current,[1]; 1 mM 4-AP,40%
same,inhibition of outward current,[1]; 0.1 mM 4-AP,10%
same,inhibition of outward current,[1]; 1 mM 4-AP,28%
"CC#C[C@]1(O)CC[C@H]2[C@@H]3CCC4=CC(=O)CCC4=C3[C@@H](c3ccc(N(C)C)cc3)C[C@@]21C [RU486, mifepristone]",effect on dexamethasone-induced SGK1 expression,"[2]; RU486 at 1 μmol/l, with 100 nM dexamethasone",completely inhibited
same,effect on dexamethasone-induced increase in SGK1 protein abundance,[2]; with 100 nM dexamethasone,fully reversed
same,effect on dexamethasone-induced inhibition of insulin secretion,[3],completely abolished
same,effect on dexamethasone-induced increase of SGK1 mRNA transcript levels,[4],completely abrogated
CC[N+](CC)(CC)CC [TEA],effect on dexamethasone-induced inhibition of insulin secretion,INS-1 cells,reversed
C[C@@H]1C[C@H]2[C@@H]3CCC4=CC(=O)C=C[C@]4(C)[C@@]3(F)[C@@H](O)C[C@]2(C)[C@@]1(O)C(=O)CO [dexamethasone],time until SGK1 protein / expression appears,[2]; 100 nM dexamethasone,≤ 2 h
same,increase of abundance of Kv1.5 mRNA (factor),Kv1.5 mRNA in INS cells,approx. 10
same,inhibition at 0.1 µM,"INS-1 cells; Rattus norvegicus, INS1",62%
